From publication PMC7323874, “Vancomycin Resistance Is Overcome by Conjugation of Polycationic Peptides” (Angewandte Chemie (International Ed. in English), 2020)
Converted amounts (≈) assume the structure as drawn. Where two headings read alike, the source gives them in different places.

Columns and labels:
P. aeruginosa ATCC 27853 = format: cell-based; details: median of at least triplicates on two different plates
Method: (§1) Antimicrobial testing – Microdilution
(§2) Antimicrobial testing was performed according to CLSI and EUCAST guidelines in microdilution.8-10 Therefore, all tested substances as well as controls were dissolved in water in different concentrations and serially diluted in MHB II (cation adjusted) on the 96-well plate. A logarithmic growing, overnight culture of the respective bacterial strain was used and adjusted to a McFarland corresponding to 1 × 10^8 cfu/ml. Afterwards the bacterial suspension was diluted to 1 ×10^6 cfu/ml and loaded on the 96-well polypropylene plates, resulting in a final bacterial concentration of 5 × 10^5 cfu/ml. After an incubation at 35 ± 1 °C for 18-20 hours (re-controlled after 24 hours) the MIC was determined as the lowest concentration without visible growth as described previously.11 For direct comparison of the tested substances, all results were calculated in mg/ml and mol/ml afterwards. […]
(§3) As further control substance, the glycopeptide antibiotic teicoplanin was evaluated. […] Resistance development in S. aureus was determined by passaging bacteria in increasing amounts of vancomycin, FU002 or, as control, fusidic acid. […]
(§4) For the validation of possible side effects provoked by the conjugates, the cytotoxic effect of the lead candidate FU002 on human cells was assessed in a colorimetric viability assay. […]

[1] = tested on: vancomycin-resistant strains (vanA, vanB and vanC); format: cell-based; details: all values, vanB and vanC resistance types
Method: as §1, §2, §3, §4

E. coli ATCC 25922 = format: cell-based; details: median of at least triplicates on two different plates
Method: as §1, §2
(§5) Resistance development in S. aureus was determined by passaging bacteria in increasing amounts of vancomycin, FU002 or, as control, fusidic acid. In principle, tubes with twofold dilutions of the compounds in 1 ml Muller Hinton broth were inoculated 1:100 with bacterial suspension. […]
as §4

[2] = tested on: Staphylococcus aureus USA300; experiment: Broth microdilution on vancomycin-sensitive strain; format: cell-based
Method: as §1, §2, §5, §4

[3] = tested on: Staphylococcus aureus USA300 LAC (MRSA) infected mice; experiment: In vivo efficacy model in infected mice; details: female Balb/c mice, FU002 56.4 mg/kg body weight per day
[4] = tested on: human cell lines (blood, liver, kidney); experiment: Cytotoxicity, XTT viability assay; format: cell-based; details: 64 µg/ml, 24 h incubation, three human cell lines (blood, liver, kidney)
[5] = tested on: Staphylococcus aureus USA300 LAC; experiment: microbe, parasite or virus in culture; format: cell-based; details: for MIC: Staphylococcus aureus, MRSA / USA300, 24 h
Method: as §1, §2
Resistance development study
Resistance development in S. aureus was determined by passaging bacteria in increasing amounts of vancomycin, FU002 or, as control, fusidic acid. In principle, tubes with twofold dilutions of the compounds in 1 ml Muller Hinton broth were inoculated 1:100 with bacterial suspension. The tubes were then incubated for 24 h at 37 °C under shaking. After each passage, the tube with the highest compound concentration showing bacterial growth was used to inoculate the tubes of the next passage (1:100). The tube with the lowest compound concentration showing no growth was defined as the passage MIC. Passaging was stopped after 8 passages.
For the validation of possible side effects provoked by the conjugates, the cytotoxic effect of the lead candidate FU002 on human cells was assessed in a colorimetric viability assay. Different human cell types were used including kidney and liver cell lines as well as freshly isolated peripheral blood cells. Cells were seeded into 96-well microtiter plates at 2 x 10^4 cells/well and cultured overnight (18-24 h) in a […]

human erythrocytes = experiment: Hemolysis assay; format: cell-based; details: up to a concentration of 640 µg/ml; 120 min at 37 °C; absorption at 554 nm; 1% Triton X-100 as positive control
Method: For hemolysis studies, blood from four different, fasted men were taken to determine the hemoglobin release. Erythrocytes were purified centrifuging blood at 2500 rpm for 3 min. The remaining pellet was washed with PBS and centrifuged again. This process was repeated until the supernatant remained clear.
For the hemolysis assay, v-bottom plates were used. FU002 was tested in duplicates in three different assays. As positive control, a 1% Triton® in 0.9%-NaCl solution was used.
FU002 was serial diluted on the plate, resulting in 50 µl of a final concentration of 640 µg/ml to 1.25 µg/ml. Every well contained 50 µl of the purified erythrocytes. […] 50 µl of the supernatant were transferred to a flat-bottom plate and absorption was measured at 554 nm.
Hemolysis was calculated as followed: […]
Cobra Auto γ-Counter, (Packard Bioscience, USA) in comparison with standards. The tissue-associated activity was related to the total injected dose (ID) and expressed as a percentage of the total injected dose per gram of tissue (%ID/g). […]
Mice were infected by intravenous application of the bacterial inoculum via the tail vein. […] During infection, mice were scored twice daily and sacrificed at day 4 post infection and livers harvested. […] Significant differences in the CFU of the livers were determined with Kruskal-Wallis test (software: GraphPad Prism 5.0).

Structure (SMILES)	MIC (P. aeruginosa ATCC 27853) [µg/mL]	MIC (minimum inhibitory concentration) [1]	MIC (E. coli ATCC 25922) [µg/mL]	activity compared with vancomycin (MIC) [2]	bacterial burden, colony forming units (CFU) in the liver ([3]; day 4 post infection, p < 0.05, Kruskal-Wallis test)	body weight of infected mice ([3]; i.v. infection, doses every 12 hours, start 2 hours p.i.)	cytotoxicity [4]	MIC after 8 passages ([5]; MRSA USA300 LAC, 8 passages in increasing compound concentrations, 24 h at 37 °C each) [µg/mL]	initial MIC ([5]; MRSA USA300 LAC, before passaging, Muller Hinton broth, 24 h, 37 °C) [µg/mL]	resistance development ([5]; after eight passages in increasing concentrations)	hemolytic activity (human erythrocytes)	MIC ([5]; read-out: MIC after 8 passages) [µg/mL]	MIC ([5]; read-out: initial MIC) [µg/mL]
CC(C)C[C@H](C(=O)N[C@H]1C(=O)N[C@@H](CC(N)=O)C(=O)N[C@H]2C(=O)N[C@H]3C(=O)N[C@H](C(=O)N[C@H](C(=O)O)c4cc(O)cc(O)c4-c4cc3ccc4O)[C@H](O)c3ccc(c(Cl)c3)Oc3cc2cc(c3O[C@@H]2O[C@H](CO)[C@@H](O)[C@H](O)[C@H]2O[C@H]2C[C@](C)(N)[C@H](O)[C@H](C)O2)Oc2ccc(cc2Cl)[C@H]1O)N(C)C(=O)C1CCC(CN2C(=O)CC(SC[C@H](NC(=O)[C@H](CCCNC(=N)N)NC(=O)[C@H](CCCNC(=N)N)NC(=O)[C@H](CCCNC(=N)N)NC(=O)[C@H](CCCNC(=N)N)NC(=O)[C@H](CCCNC(=N)N)NC(=O)[C@@H](N)CCCNC(=N)N)C(N)=O)C2=O)CC1 (some centres unmarked) [FU002]	≥ 640	below 4 mg L^−1	≥ 640	at least as active as vancomycin	significant reduction of bacterial burden	No infection‐related body weight loss	no relevant cytotoxicity	4 (≈ 1.47 µM)	1	no resistance development was observed	no relevant hemolytic activity		
CN[C@H](CC(C)C)C(=O)N[C@H]1C(=O)N[C@@H](CC(N)=O)C(=O)N[C@H]2C(=O)N[C@H]3C(=O)N[C@H](C(=O)N[C@H](C(=O)O)c4cc(O)cc(O)c4-c4cc3ccc4O)[C@H](O)c3ccc(c(Cl)c3)Oc3cc2cc(c3O[C@@H]2O[C@H](CO)[C@@H](O)[C@H](O)[C@H]2O[C@H]2C[C@](C)(N)[C@H](O)[C@H](C)O2)Oc2ccc(cc2Cl)[C@H]1O [vancomycin]											no relevant hemolytic activity	4 (≈ 2.76 µM)	0.5 (≈ 0.345 µM)
